From the NIST ThermoML archive (doi:10.1016/j.fluid.2007.09.002)

Tests used:
[1] = Liquid, Closed cell (Static) method
[2] = excess molar enthalpy (molar enthalpy of mixing); xn = mol fraction of the nth substance listed; conditions: 298.15 K, 101.3 kPa, Liquid, Flow calorimetry

CC#CCCC [2-hexyne]
[1]
Conditions	vapor or sublimation pressure [kPa]
263.15 K	1.372
273.15 K	2.56
283.15 K	4.532
293.15 K	7.66
298.15 K	9.804
303.15 K	12.43
313.15 K	19.45
323.15 K	29.46
333.15 K	43.35
343.15 K	62.15

CC#CCCC [2-hexyne] + CCCCOC
[2]
Conditions	excess molar enthalpy [kcal/mol]
x1 = 0.1468	-0.0143
x1 = 0.3058	-0.0287
x1 = 0.4949	-0.039
x1 = 0.637	-0.0382
x1 = 0.7489	-0.0335
x1 = 0.8444	-0.0191

CCC#CCC [3-hexyne]
[1]
Conditions	vapor or sublimation pressure [kPa]
263.15 K	1.613
273.15 K	3.001
283.15 K	5.293
293.15 K	8.909
298.15 K	11.38
303.15 K	14.39
313.15 K	22.4
323.15 K	33.77
333.15 K	49.44
343.15 K	70.52

CCC#CCC [3-hexyne] + CCCCOCCCC
[2]
Conditions	excess molar enthalpy [kcal/mol]
x1 = 0.1599	0.00956
x1 = 0.2756	0.0143
x1 = 0.3989	0.0174
x1 = 0.496	0.0184
x1 = 0.5781	0.0182
x1 = 0.6579	0.0163
x1 = 0.7475	0.0136
x1 = 0.8783	0.00837

CCCCOC [butyl methyl ether]
[1]
Conditions	vapor or sublimation pressure [kPa]
263.15 K	3.054
273.15 K	5.436
283.15 K	9.207
293.15 K	14.93
298.15 K	18.73
303.15 K	23.3
313.15 K	35.15
323.15 K	51.45
333.15 K	73.31
343.15 K	101.96
